Results on five compounds are retold here after patent US20220380341A1, “INHIBITORS OF HIV-1 NEF FOR THE TREATMENT OF HIV DISEASE” (priority 2018, published 2022).

For one data set, the system named is HIV-1NL4-3. Put plainly: HIV-1 infectivity assay in TZM-bl reporter cell line (LTR-luciferase, 48 h). Type of data set: cell-based. As to conditions: Human immunodeficiency virus 1, TZM-bl. The method, boiled down:
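Read-out is luciferase from an integrated HIV-1 LTR reporter in TZM-bl cells, 48 h after HIV-1NL4-3 infection in the presence of 1 μM compound. Scale set by DMSO-treated wild-type-infected cells (0%) and Nef-defective virus (100% Nef-dependent effect). Cell Titer Blue measures cytotoxicity without virus.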

The next data set deals with TZM-bl cell line. It is filed as cell-based. Particulars: human, 1 μM. The method, boiled down:
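Luciferase read-out 48 h post-infection; compound at 1 μM during HIV-1NL4-3 infection of TZM-bl cells. Percent inhibition scaled to DMSO wild-type virus (0%) and DMSO Nef-defective virus (100% of Nef-dependent effect). Viability checked separately in uninfected cells by Cell Titer Blue.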

In a further data set the target is HIV-1 NefNL4-3 (Human immunodeficiency virus type 1 group M subtype B, UniProt P03406, A33V/T15A/T51N/V11I). The experiment in a line: Surface plasmon resonance binding to recombinant full-length Nef (NL4-3). Particulars: for RU30/RUNef (extent of binding): response units at 30 μM relative to Nef immobilized on the SPR chip.
The mark [1] stands for this setting: 1.0 μM, TZM-bl reporter cell line, Table 4, read-out: % Infectivity Inhibition.
Where [2] appears, read: 48 h, Table 1, TZM-bl cells, 1 μM, 48 h, 100% = Nef-defective HIV-1, read-out: HIV-1 Infectivity % Inhibition Norm. to Δ-Nef @ 1 μM.
[3] abbreviates: KD, M, Table 4, SPR fit 1:1 Langmuir, KD = koff/kon.
[4] abbreviates: Table 4, 1:1 Langmuir fit, T = 1/koff.
The mark [5] stands for this setting: KD, M, Table 4, SPR fit 2-step induced fit, KD = koff/kon × koff2/(koff2 + kon2).
Setting [6] is: Nef NL4-3 Binding, SPR 2-state fitting KD, Table 1, 2-step induced-fit model.
Where [7] appears, read: Table 4, 2-step induced fit, T = 1/koff2.
Setting [8] is: read-out: Nef NL4-3 Binding, SPR 1:1 or 2-site fitting KD2, Table 1, 2-site fit, second component.

Molecules are shown by their SMILES. Read-outs that look alike come from different tables or passages of the source.

As for `Cc1ccn(CCc2c(-c3ccc(C(F)(F)F)cc3)nn(-c3nc4cccnc4[nH]3)c2O)n1` [Compound I-303, 1-{3H-imidazo[4,5-b]pyridin-2-yl}-4-[2-(3-methyl-1H-pyrazol-1-yl)ethyl]-3-[4-(trifluoromethyl)phenyl]-1H-pyrazol-5-ol], in the data set with HIV-1NL4-3 (setting [1]), the inhibition (usually the change of the read-out against control, counted positive when it falls) at 1 µM is 40.1%. For the same compound, the inhibition at 1 µM with HIV-1NL4-3 (setting [2]) turned out to be 40.6%. In the data set with TZM-bl cell line, the “% Cell Viability” value was determined as 98.3% and the “Percent Viability @ 1 μM (TZM-bl cells)” value turned out to be 98.3%. On HIV-1 NefNL4-3, the Kd worked out at 396 nM and the “RU30/RUNef (extent of binding)” value worked out at 3.06E- 03. On HIV-1 NefNL4-3 (setting [3]), the Kd stood at 396 nM. In addition, on HIV-1 NefNL4-3 (setting [4]), the “T, minutes (residence time)” value was determined as 9.47E + 01 minutes.
Regarding `Oc1c(CCC2CCOCC2)c(-c2cccc(F)c2)nn1-c1nc2cccnc2[nH]1` [Compound I-304, 3-(3-fluorophenyl)-1-{3H-imidazo[4,5-b]pyridin-2-yl}-4-[2-(oxan-4-yl)ethyl]-1H-pyrazol-5-ol], the inhibition at 1 µM is 0% in the data set on HIV-1NL4-3 (setting [1]) and -2% in the data set with HIV-1NL4-3 (setting [2]). Besides, in the data set on TZM-bl cell line, the “% Cell Viability” value stood at 98.7%. For the same compound, the “Percent Viability @ 1 μM (TZM-bl cells)” value in the data set on TZM-bl cell line is reported as 98.7%. The Kd was determined as 138 nM at HIV-1 NefNL4-3, 3150 nM at HIV-1 NefNL4-3 (setting [5]), 3150 nM on HIV-1 NefNL4-3 (setting [6]) and 40300 nM at HIV-1 NefNL4-3 (setting [8]). Also, the “T, minutes (residence time)” value on HIV-1 NefNL4-3 (setting [7]) is listed as 1.25E + 01 minutes. The “RU30/RUNef (extent of binding)” value on HIV-1 NefNL4-3 was 5.25E- 03.
As for `CS(=O)(=O)c1cccc(-c2nn(-c3nc4cccnc4[nH]3)c(O)c2CCC2CCOCC2)c1` [Compound I-305, 1-{3H-imidazo[4,5-b]pyridin-2-yl}-3-(3-methanesulfonylphenyl)-4-[2-(oxan-4-yl)ethyl]-1H-pyrazol-5-ol], the inhibition at 1 µM in the data set on HIV-1NL4-3 (setting [1]) was found to be 59.3%. The inhibition at 1 µM with HIV-1NL4-3 (setting [2]) was determined as 59.3%. For the same compound, in the data set with TZM-bl cell line, the “% Cell Viability” value is listed as 96.8% and the “Percent Viability @ 1 μM (TZM-bl cells)” value turned out to be 96.8%. For the same compound, on HIV-1 NefNL4-3, the Kd worked out at 744 nM and the “RU30/RUNef (extent of binding)” value amounted to 2.13E- 03. In addition, the Kd at HIV-1 NefNL4-3 (setting [3]) came to 744 nM. Further, the “T, minutes (residence time)” value at HIV-1 NefNL4-3 (setting [4]) is given as 1.13E + 01 minutes.
Take `O=C(OCc1ccccc1)N1CCC(c2nn(-c3nc4cccnc4[nH]3)c(O)c2CCc2ccc(F)cc2)CC1` [Compound I-306, benzyl 4-{4-[2-(4-fluorophenyl)ethyl]-5-hydroxy-1-{3H-imidazo[4,5-b]pyridin-2-yl}-1H-pyrazol-3-yl}piperidine-1-carboxylate]: the inhibition at 1 µM was 0% in the data set with HIV-1NL4-3 (setting [1]) and -5.2% with HIV-1NL4-3 (setting [2]). In addition, the “% Cell Viability” value in the data set on TZM-bl cell line is listed as 95.7%. Moreover, the “Percent Viability @ 1 μM (TZM-bl cells)” value in the data set with TZM-bl cell line was 95.7%. Further, the Kd at HIV-1 NefNL4-3 was 13.6 nM; on HIV-1 NefNL4-3 (setting [5]) it was 731 nM; at HIV-1 NefNL4-3 (setting [6]) it was 731 nM; at HIV-1 NefNL4-3 (setting [8]), 5430 nM. The “T, minutes (residence time)” value at HIV-1 NefNL4-3 (setting [7]) is 3.52E + 01 minutes. Besides, the “RU30/RUNef (extent of binding)” value at HIV-1 NefNL4-3 was 9.61E- 03.
As to `Oc1c(CCc2ccc(F)cc2)c(CCCc2ccc(F)cc2)nn1-c1nc2cccnc2[nH]1` [Compound I-307, 4-[2-(4-fluorophenyl)ethyl]-3-[3-(4-fluorophenyl)propyl]-1-{3H-imidazo[4,5-b]pyridin-2-yl}-1H-pyrazol-5-ol], in the data set with HIV-1NL4-3 (setting [1]), the inhibition at 1 µM was 47.5%. The inhibition at 1 µM with HIV-1NL4-3 (setting [2]) was 47.5%. Moreover, in the data set with TZM-bl cell line, the “% Cell Viability” value was determined as 98.2% and the “Percent Viability @ 1 μM (TZM-bl cells)” value is 98.2%. For the same compound, on HIV-1 NefNL4-3, the Kd turned out to be 890 nM and the “RU30/RUNef (extent of binding)” value was determined as 6.84E- 03. The Kd at HIV-1 NefNL4-3 (setting [3]) turned out to be 890 nM. Besides, the “T, minutes (residence time)” value at HIV-1 NefNL4-3 (setting [4]) was 1.14E + 01 minutes.
